The values below come from patent US10696692B2, “Amido-benzyl sulfone and sulfoxide derivates” (Forma TM, LLC, priority 2012, dated 2020).

One test has as its system A2780 cells. The test can be described thus: Assay 2: In-Vitro Cell Proliferation Assay (A2780 cells, SRB readout, 72 hours).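 Further: viable cells counted via sulforhodamine B staining, absorbance at 570 nm, after 72 h exposure at 37 °C, DMSO 0.1% as control, media-only background subtracted.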 To be noted: Homo sapiens, A2780, 72 h, A2780 cells, 72 hours, SRB; read-out: Cell Proliferation (IC50). The test is classed as cell-based.
In a further test the target is NAMPT (Homo sapiens (Human), UniProt P43490). The experiment in a line: Assay 1: Biochemical Inhibition Assay (NAMPT enzymatic reaction, NMN quantified by mass spectrometry).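 Further: recombinant His-tagged human NAMPT preincubated with compound 15 min, then reacted 30 min at rt with 1 µM NAM, 100 µM PRPP, 2.5 mM ATP, NMN product read by RapidFire MS, normalized to L-Cystathionine internal standard.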 To be noted: read-out: Biochemical (IC50).
Sequence of NAMPT (P43490 whole entry): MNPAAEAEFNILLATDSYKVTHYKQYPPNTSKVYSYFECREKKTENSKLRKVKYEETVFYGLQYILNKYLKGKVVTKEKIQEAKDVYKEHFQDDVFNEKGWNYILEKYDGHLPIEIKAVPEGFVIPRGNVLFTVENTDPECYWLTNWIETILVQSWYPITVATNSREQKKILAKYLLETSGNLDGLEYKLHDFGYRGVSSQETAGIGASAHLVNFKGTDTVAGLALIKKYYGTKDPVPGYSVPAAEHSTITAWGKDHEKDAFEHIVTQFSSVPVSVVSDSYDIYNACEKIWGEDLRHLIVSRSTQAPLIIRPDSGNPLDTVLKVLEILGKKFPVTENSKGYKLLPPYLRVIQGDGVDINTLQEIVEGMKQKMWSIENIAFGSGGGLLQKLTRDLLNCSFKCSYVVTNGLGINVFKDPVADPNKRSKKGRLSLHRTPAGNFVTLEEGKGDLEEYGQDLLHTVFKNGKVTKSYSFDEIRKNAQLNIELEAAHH

Each structure is given as a SMILES string.

For the compound `O=C(NCc1ccc(S(=O)(=O)C2CCN(CC(F)(F)F)CC2)cc1)c1cnc2[nH]ncc2c1` [Example 208, N-[[4-[[1-(2,2,2-trifluoroethyl)-4-piperidyl]sulfonyl]phenyl]methyl]-1H-pyrazolo[3,4-b]pyridine-5-carboxamide], the IC50 with A2780 cells came out at 10.8 nM; at NAMPT it was 47.7 nM.

Take `O=C(NCc1ccc(S(=O)(=O)C2CCN(CC(F)(F)F)CC2)cc1)c1cnc2nccn2c1` [Example 209, N-[[4-[[1-(2,2,2-trifluoroethyl)-4-piperidyl]sulfonyl]phenyl]methyl]imidazo[1,2-a]pyrimidine-6-carboxamide]: the IC50 is 8.84 nM in the test on A2780 cells and 3.72 nM on NAMPT.

As for `O=C(NCc1ccc(S(=O)(=O)C2CCN(CC(F)(F)F)CC2)cc1)c1ccc2nccn2c1` [Example 210, N-[[4-[[1-(2,2,2-trifluoroethyl)-4-piperidyl)sulfonyl]phenyl]methyl]imidazo[1,2-a]pyridine-6-carboxamide], the IC50 is 3.47 nM in the test with A2780 cells and 17.7 nM on NAMPT.

Consider `O=C(NCc1ccc(S(=O)(=O)C2CCN(CC(F)(F)F)CC2)cc1)c1cc2cnccc2[nH]1` [Example 211, N-[[4-[[1-(2,2,2-trifluoroethyl)-4-piperidyl]sulfonyl]phenyl]methyl]-1H-pyrrolo[3,2-c]pyridine-2-carboxamide], for which the IC50 in the test on A2780 cells is 3.23 nM; on NAMPT it was 15.4 nM.

Take `O=C(NCc1ccc(S(=O)(=O)C2CCN(CC(F)(F)F)CC2)cc1)c1cc2ccncc2o1` [Example 212, N-[[4-[[1-(2,2,2-trifluoroethyl)-4-piperidyl]sulfonyl]phenyl]methyl]furo[2,3-c]pyridine-2-carboxamide]: the values for the IC50 in the test with A2780 cells and at NAMPT were 5.35 nM and 13.5 nM, respectively.

For `O=C(NCc1ccc(S(=O)(=O)C2CCN(C3CCOCC3)CC2)cc1)c1ccc2nccn2c1` [Example 214, N-[[4-[(1-tetrahydropyran-4-yl-4-piperidyl)sulfonyl]phenyl]methyl]imidazo[1,2-a] pyridine-6-carboxamide], the IC50 stood at 4.73 nM in the test with A2780 cells and 13.6 nM at NAMPT.

With `O=C(NCc1ccc(S(=O)(=O)N2CCC3(CNC3)C2)cc1)c1ccc2nccn2c1` [Example 215, N-[[4-(2,6-diazaspiro[3.4]octan-6-ylsulfonyl)phenyl]methyl] imidazo[1,2-a]pyridine-6-carboxamide], the IC50 in the test on A2780 cells is 166 nM; at NAMPT it was 81.5 nM.

For `CN1CCC2(C1)CN(S(=O)(=O)c1ccc(CNC(=O)c3ccc4nccn4c3)cc1)C2` [Example 216, N-[[4-[(7-methyl-2,7-diazaspiro[3.4]octan-2-yl)sulfonyl]phenyl]methyl] imidazo[1,2-a]pyridine-6-carboxamide], the IC50 in the test on A2780 cells turned out to be 13.7 nM; on NAMPT, 30.4 nM.

As to `O=C(NCc1ccc(S(=O)(=O)N2CCC3(CCNC3=O)C2)cc1)c1ccc2nccn2c1` (stereo not drawn) [Example 217, N-[[4-[(1-oxo-2,7-diazaspiro[4.4]nonan-7-yl)sulfonyl]phenyl]methyl] imidazo[1,2-a]pyridine-6-carboxamide], the IC50 turned out to be 10.1 nM in the test on A2780 cells and 16 nM at NAMPT.

`O=C(NCc1ccc(S(=O)(=O)N2CC3(CCOCC3)C2)cc1)c1ccc2nccn2c1` [Example 218, N-[[4-(7-oxa-2-azaspiro[3.5]nonan-2-ylsulfonyl)phenyl]methyl] imidazo[1,2-a]pyridine-6-carboxamide]: the IC50 in the test on A2780 cells was 3.45 nM; at NAMPT it was 10.3 nM.

With `O=C(NCc1ccc(S(=O)(=O)N2CCC3(CCCO3)C2)cc1)c1ccc2nccn2c1` (stereo not drawn) [Example 219, N-[[4-(1-oxa-7-azaspiro[4.4]nonan-7-ylsulfonyl)phenyl]methyl] imidazo[1,2-a]pyridine-6-carboxamide], the results for the IC50 with A2780 cells and on NAMPT were 2.17 nM and 8.45 nM, respectively.

As to `O=C(NCc1ccc(S(=O)(=O)N2CC3(CCOC3)C2)cc1)c1ccc2nccn2c1` [Example 220, N-[[4-(6-oxa-2-azaspiro[3.4]octan-2-ylsulfonyl)phenyl]methyl] imidazo[1,2-a]pyridine-6-carboxamide], the IC50 in the test with A2780 cells was found to be 16.8 nM; on NAMPT it was 25 nM.

Consider `O=C(NCc1ccc(S(=O)(=O)[C@H]2CCOC2)cc1)c1cc2cnccc2[nH]1` [Example 221, N-[[4-[(3S)-tetrahydrofuran-3-yl]sulfonylphenyl]methyl]-1H-pyrrolo[3,2-c]pyridine-2-carboxamide], for which the IC50 was found to be 347 nM in the test with A2780 cells and 125 nM at NAMPT.

On to `O=C(NCc1ccc(S(=O)(=O)[C@H]2CCOC2)cc1)c1cnc2nccn2c1` [Example 222, N-[[4-[(3S)-tetrahydrofuran-3-yl]sulfonylphenyl]methyl] imidazo[1,2-a]pyrimidine-6-carboxamide], for which the IC50 in the test on A2780 cells worked out at 423 nM; on NAMPT, 9.77 nM.

For `O=C(NCc1ccc(S(=O)(=O)[C@H]2CCOC2)cc1)c1ccc2nccn2c1` [Example 223, N-[[4-[(3S)-tetrahydrofuran-3-yl]sulfonylphenyl]methyl] imidazo[1,2-a]pyridine-6-carboxamide], the IC50 was 105 nM with A2780 cells and 64.2 nM on NAMPT.

As for `O=C(NCc1ccc(S(=O)(=O)C2CCN(C3CCOCC3)CC2)cc1)c1cnc2nccn2c1` [Example 224, N-[[4-[(1-tetrahydropyran-4-yl-4-piperidyl)sulfonyl]phenyl]methyl]imidazo[1,2-a]pyrimidine-6-carboxamide], the IC50 with A2780 cells was determined as 47.9 nM; at NAMPT, 3.98 nM.

Turning to `O=C(NCc1ccc(S(=O)(=O)[C@@H]2CCOC2)cc1)c1cc2cnccc2[nH]1` [Example 225, N-[[4-[(3R)-tetrahydrofuran-3-yl]sulfonylphenyl]methyl]-1H-pyrrolo[3,2-c]pyridine-2-carboxamide], the IC50 in the test with A2780 cells is 320 nM; at NAMPT, 118 nM.

In the case of `O=C(NCc1ccc(S(=O)(=O)[C@@H]2CCOC2)cc1)c1cnc2nccn2c1` [Example 226, N-[[4-[(3R)-tetrahydrofuran-3-yl)sulfonylphenyl]methyl] imidazo[1,2-a]pyrimidine-6-carboxamide], the results for the IC50 in the test with A2780 cells and on NAMPT were 457 nM and 8.88 nM, respectively.

On to `O=C(NCc1ccc(S(=O)(=O)[C@@H]2CCOC2)cc1)c1ccc2nccn2c1` [Example 227, N-[[4-((3R)-tetrahydrofuran-3-yl]sulfonylphenyl]methyl] imidazo[1,2-a]pyridine-6-carboxamide], for which the IC50 is 98.4 nM with A2780 cells and 51.3 nM on NAMPT.

Take `CC(=O)N1CCC(S(=O)(=O)c2ccc(CNC(=O)c3cnc4[nH]ncc4c3)cc2)CC1` [Example 228, N-[[4-(1-Acetylpiperidine-4-sulfonyl)phenyl]methyl]-1H-pyrazolo[3,4-b]pyridine-5-carboxamide]: the values for the IC50 in the test with A2780 cells and on NAMPT were 151 nM and 207 nM, respectively.

As for `CC(=O)N1CCC(S(=O)(=O)c2ccc(CNC(=O)c3cnc4nccn4c3)cc2)CC1` [Example 229, N-[[4-[(1-acetyl-4-piperidyl)sulfonyl]phenyl]methyl]imidazo[1,2-a]pyrimidine-6-carboxamide], the IC50 in the test with A2780 cells stood at 527 nM; on NAMPT it was 5.12 nM.

As to `O=C(NCc1ccc(S(=O)(=O)[C@H]2CCOC2)cc1)c1cc2ccncc2o1` [Example 230, N-[[4-[(3S)-tetrahydrofuran-3-yl]sulfonylphenyl]methyl]furo [2,3-c]pyridine-2-carboxamide], the figures for the IC50 in the test on A2780 cells and on NAMPT were 243 nM and 73.8 nM, respectively.

Regarding `O=C(NCc1ccc(S(=O)(=O)[C@H]2CCOC2)cc1)c1cnc2[nH]ncc2c1` [Example 231, N-[[4-[(3S)-tetrahydrofuran-3-yl]sulfonylphenyl]methyl]-1H-pyrazolo[3,4-b]pyridine-5-carboxamide], the IC50 with A2780 cells was 977 nM; at NAMPT it was 315 nM.

As for `O=C(NCc1ccc(S(=O)(=O)[C@@H]2CCOC2)cc1)c1cc2ccncc2o1` [Example 232, N-[[4-[(3R)-tetrahydrofuran-3-yl]sulfonylphenyl]methyl]furo [2,3-c]pyridine-2-carboxamide], the IC50 in the test on A2780 cells was found to be 445 nM; on NAMPT it was 175 nM.

As for `O=C(NCc1ccc(S(=O)(=O)[C@@H]2CCOC2)cc1)c1cnc2[nH]ncc2c1` [Example 233, N-[[4-((3R)-tetrahydrofuran-3-yl]sulfonylphenyl]methyl]-1H-pyrazolo[3,4-b]pyridine-5-carboxamide], the IC50 in the test on A2780 cells is 1590 nM; at NAMPT, 227 nM.

In the case of `O=C(NCc1ccc(S(=O)(=O)C2CCNCC2)cc1)c1ccc2nccn2c1` [Example 234, N-[[4-(4-piperidylsulfonyl)phenyl]methyl]imidazo[1,2-a]pyridine-6-carboxamide], the IC50 in the test on A2780 cells amounted to 130 nM; at NAMPT, 90.6 nM.

As for `CC(C)(C)OC(=O)N1CCC2(CC1)CCN(S(=O)(=O)c1ccc(CNC(=O)c3ccc4nccn4c3)cc1)C2` [Example 235, tert-butyl 2-[4-[(imidazo[1,2-a]pyridine-6-carbonylamino)methyl]phenyl] sulfonyl-2,8-diazaspiro[4.5]decane-8-carboxylate], the IC50 with A2780 cells worked out at 36.3 nM; at NAMPT it was 16.4 nM.

As for `CC(C)(C)OC(=O)N1CCC2(CCCN2S(=O)(=O)c2ccc(CNC(=O)c3ccc4nccn4c3)cc2)C1` (stereo not drawn) [Example 237, tert-butyl 1-[4-[(imidazo[1,2-a]pyridine-6-carbonylamino)methyl]phenyl] sulfonyl-1,7-diazaspiro[4.4]nonane-7-carboxylate], the IC50 was found to be 38.8 nM in the test on A2780 cells and 109 nM at NAMPT.

On to `CC(C)(C)OC(=O)N1CCCC2(C1)CN(S(=O)(=O)c1ccc(CNC(=O)c3ccc4nccn4c3)cc1)C2` [Example 238, tert-butyl 2-[4-[(imidazo[1,2-a]pyridine-6-carbonylamino)methyl]phenyl] sulfonyl-2,8-diazaspiro[3.5]nonane-8-carboxylate], for which the IC50 in the test with A2780 cells is 1.83 nM; at NAMPT, 11.8 nM.

For the compound `O=C(NCc1ccc(S(=O)(=O)N2CC(F)(F)C2)cc1)c1ccc2nccn2c1` [Example 239, N-[[4-(3,3-difluoroazetidin-1-yl)sulfonylphenyl]methyl] imidazo[1,2-a]pyridine-6-carboxamide], the IC50 in the test on A2780 cells worked out at 35.6 nM; on NAMPT, 33.3 nM.
